Experimental data: patent US9376499B2, “PAR-1 activation by metalloproteinase-1 (MMP-1)” (Tufts Medical Center, Inc., priority 2009, dated 2016)
One block for each molecule: values may come before it. No end group written: not given here.

How the values were obtained:
platelets [1] = assay: Collagen-dependent aggregation of gel-filtered human platelets (light transmittance); format: cell-based; conditions: for inhibition (loss) of collagen-induced platelet aggregation: 5 μg/ml collagen, 1,10-PA 100 μM, MMP-200 200 nM, FN-439 3 μM, RWJ-56110 1 μM, PAR1 Ab 75 μg/ml, pepducins 3 μM, PPACK 200 μM, hirudin 1 U/ml
Protocol: Platelet pellets and their supernatants were prepared as follows. […] following established informed consent procedures. […] Alternatively, whole blood was obtained from Hartley Sprague guinea pigs (drawn from the vena cava) into 3% citrate plus 10 U/ml heparin. Washed platelets from the guinea pigs were prepared in PIPES buffer. Platelet aggregation was measured with a Chronolog 560VS/490-2D aggregometer using modified PIPES buffer as a blank. Samples were incubated for 5 min in the presence of inhibitors and 1.8 mM CaCl2 prior to addition of agonist. All reactions were in final volumes of 250 μl at 37° C. while stirring at 900 rpm.
The effect of pharmacologic blockage of metalloproteases or PAR1 on collagen-dependent platelet aggregation was then tested (see FIG. 5). Gel-filtered platelets from healthy individuals (supplemented with 0.3 mg/ml fibrinogen) were challenged with 5 μg/ml collagen in the presence or absence (0.2% DMSO vehicle) of the indicated inhibitors and allowed to stir at 900 rpm in an aggregometer cuvette (250 μL) at 37° C.
In FIG. 5A, platelet aggregation was monitored by light transmittance.

platelets [2] = assay: Platelet thrombus formation on collagen surface under arterial flow, CTI-anticoagulated whole blood; format: cell-based, human; conditions: CTI 30 μg/mL, hirudin 0.0013 U/mL, aspirin 1 mM
Protocol: Collagen-activated platelets also provide a pro-coagulant surface and produce tissue factor, which aids in the production of thrombin (Giesen at al., 1999; Mackman, 2004; Schwertz et al., 2006).
Whole blood was anti-coagulated with CTI (30 μg/mL) to block the contact pathway, otherwise the experiments were conducted identically as in FIG. 6A. Hirudin was used as indicated at 0.0013 UImL.

PAR1 [3] = assay: Release of PAR1 N-terminal cleavage peptide from gel-filtered platelets (dot blot, IIaR-A antibody); format: cell-based, human
Source text: To further understand how collagen is able to activate significant amounts of endogenous MMP-1 collagenase activity on the surface of platelets, experiments were devised to determine if PAR-1 is cleaved in either an autocrine or paracrine manner following exposure to collagen. Using a monoclonal antibody raised against the amino-terminal thrombin-cleavage peptide region of PAR1, residues 32-46 (Loew et al., 2000), the relative abilities of thrombin, MMP-1 and collagen to cause cleavage of platelet PAR1 was assessed. Gel filtered platelets were treated for 10 min with thrombin (3 nM), MMP-1 (3 nM), collagen (5 μg/ml), in the presence or absence (PBS buffer) of 0.00013 U hirudin or 5 μM FN-439 at 37° C. Supernatants were concentrated 20-fold and applied to nitrocellulose membranes, then probed with the IIaR-A monoclonal antibody. The PAR1 N-terminal thrombin deavage peptide (A26-R41) and PAR1 flexible linker peptide (N-acetyl-T67-L84 -C) (Kuliopulos et al., 1999) served as positive and negative controls (100 ng), respectively.
These platelets were then stimulated with collagen (5 μg/ml) for 10 min. at 37° C. Supernatants were concentrated 20-fold and applied to nitrocellulose membranes, then probed with the IIaR-A monoclonal antibody. […] FN-439, or an MMP1-blocking antibody (20 μg/ml) but not by thrombin inhibitor, hirudin (see FIG. 1E, FIG. 1G).

PAR1 [4] = target: T1, PAR1 (Homo sapiens, UniProt P25116); assay: PAR1-dependent RhoA activation (Rho-GTP) in platelets by tethered-ligand peptides; format: cell-based; conditions: 30 μM peptide, 5 min, 37° C.
T1 construct: able to cleave PAR1 on the surface of human platelets; endogenous in cells; host or cells: gel-filtered or washed human platelets
T1 sequence (P25116 22-425): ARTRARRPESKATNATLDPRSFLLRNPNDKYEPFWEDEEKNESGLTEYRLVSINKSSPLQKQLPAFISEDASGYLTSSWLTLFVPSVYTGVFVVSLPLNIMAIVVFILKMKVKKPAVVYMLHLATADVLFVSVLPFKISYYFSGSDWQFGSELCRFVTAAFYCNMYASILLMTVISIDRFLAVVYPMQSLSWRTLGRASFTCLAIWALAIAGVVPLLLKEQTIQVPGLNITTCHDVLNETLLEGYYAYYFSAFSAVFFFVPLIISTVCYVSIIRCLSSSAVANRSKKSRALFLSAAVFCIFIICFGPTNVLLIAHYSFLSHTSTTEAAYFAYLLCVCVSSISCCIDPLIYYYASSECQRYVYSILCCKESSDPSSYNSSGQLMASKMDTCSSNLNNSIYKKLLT
Protocol: Gel-filtered human platelets, supplemented with 0.3 mg/mL fibrinogen, were treated with 0.2% DMSO vehicle, or 30 μM SFLLRN (TRAP), PR-TRAP or reversed peptide (RP-TRAP), for 5 min at 37° C. in presence or absence of 1 μM RWJ-56110 as indicated. Platelets were lysed and Rho-GTP and total Rho was determined by Western analysis as described in the Experimental Procedures. Western bands were quantified by densitometry and results expressed relative to fold-increase from basal.

PAR1 [5] = target: T1, PAR1; assay: Platelet shape change (decrease in light transmittance); format: cell-based; conditions: washed human platelets pretreated with 2 mM EGTA
Protocol: In FIG. 3C, the ability of the […] peptide (PR-TRAP) to induce a change in platelet shape was determined. Washed human platelets were pretreated with 2 mM EGTA and then treated with the indicated agonists in the presence or absence of 1 μM RWJ-56110 while stirring at 1100 rpm. The decrease in light transmittance is an indication of the platelet shape change reaction.
In FIG. 4B, the ability of MMP-1 to induce platelet shape change was determined. Washed human platelets were pretreated with 2 mM EGTA and then challenged with MMP-1 in the presence or absence of 1 μM RWJ-56110 while stirring at 1100 rpm. Shape change was measured as described above.

PAR1 [6] = target: T1, PAR1; assay: p38 MAPK activation in platelets by tethered-ligand peptides; format: cell-based; conditions: 5 min, 37° C.
Protocol: In FIG. 3B, the effect of the […] peptide (PR-TRAP) on p38 MAPK in platelets was measured. Platelets were stimulated with different concentrations of PR-TRAP, RP-TRAP or TRAP as indicated for 5 min at 37° C. Platelets were lysed with Laemmli sample buffer and proteins assessed by Western blot of p38 MAPK activity with phospho-specific p38 MAPK antibody or total p38MAPK antibody.

[7] = Carotid artery FeCl3 injury arterial thrombosis model; format: in vivo, guinea pig; conditions: bivalirudin 0.18 mg/kg i.v.; from 13 min without
Source text: To assess the efficacy on arterial thrombosis by blockade of thrombin, MMP-1, or PAR1, a standard carotid artery FeCl3 injury model was used in guinea pigs. FeCl3 causes denudation of the artery and exposure of type I collagen and other subendothelial matrix proteins. The effects of blocking thrombin with bivalirudin, MMP-1 with FN-439, and PAR1 with either the small molecule antagonist RWJ-56110 or the P1pal-7 pepducin on arterial thrombosis were then compared using a dopier probe.
For these arterial thrombosis experiments, 10 min after i.v. administration of vehicle (−), bivalirudin, RWJ-56110, P1 pal-7 or FN-439 (n=4-5) through the jugular vein at the indicated concentrations, the right carotid arteries were injured for 20 min using a 24 mm^2 piece of Bio-Rad Trans-Blot paper soaked in 20% FeCl3. Arterial flow 5 mm distal to the site of injury was measured with a 0.5 V Doppler probe (Transonic Systems). An arterial occlusion was defined as a flow rate of <0.01 V for ≧5 min. Doppler measurements were terminated at the 30 min time point following injury (* designates p<0.05).

platelets [8] = assay: Platelet thrombus formation on collagen surface under arterial flow, heparin-anticoagulated whole blood; format: cell-based, human; conditions: heparin 10 U/mL; shear rate 1,000 s-1; FN-439 3 μM, RWJ-56110 1 μM, pepducins 3 μM, aspirin 1 mM
Protocol: Following incubation with inhibitors, the blood was perfused over a glass slide coated with fibrillar collagen type I.
A flow chamber (Glycotech) with Type-I fibrillar collagen-coated glass slides was mounted on the stage of an IMT-2 inverted microscope (Olympus) equipped with Retiga 1300 digital camera (QImaging) and 40× objective. One of the flow chamber inlets was connected to a syringe pump (Harvard Apparatus) calibrated to create a shear rate of 1,000^s-1. The whole blood pretreated with the various pharmacologic inhibitors was then perfused over the collagen-coated glass slide. After 2-15 min of perfusion, blood was removed from the flow chamber by gentle displacement with PIPES buffer and images of 8-10 fields were acquired using OpenLab software (Improvision). Acquired images were further analyzed using NIH Image 1.63 software. Images were first sharpened and the edges of separate platelets and platelet aggregates were determined. Following the adjustment of threshold, images were converted into the binary format, and the particle analysis function was activated to highlight the regions covered by platelets with the sensitivity set to one single adherent thrombocyte. For the conversion of pixels into square micrometers, a calibration curve was built using 2.5, 6, 20, 25, and 45 μm polystyrene beads (Polyscience) using acquisition conditions identical to the experimental. The mean area of formed thrombus was determined at 7 min. Area measurements in FIG. 6B represent the mean±s.e. of three separate experiments from five different blood donors.

Rho-GTP = assay: Collagen-induced Rho-GTP activity in platelets (western blot); format: cell-based, human; conditions: 5 or 20 μg/ml collagen or 10 nM MMP-1; ARC 0.5 μM, aspirin 1 mM
Protocol: In FIG. 5C, platelets were treated as in FIG. 5B and then Rho GTP activity was assessed by western blot.
Representative blots are shown at the bottom of FIGS. 5B-D. Data are the mean±s.d. of three experiments. P*<0.01, #<0.05.

p38 MAPK = assay: Collagen-induced phospho-p38 MAPK in platelets (western blot); format: cell-based, human; conditions: 5 or 20 μg/ml collagen or 10 nM MMP-1; ARC 0.5 μM, aspirin 1 mM
Protocol: The effect of pharmacologic blockage of metalloproteases or PAR1 on collagen-dependent platelet aggregation was then tested (see FIG. 5). […] Platelets were pre-incubated for 5 min with the thrombin inhibitors PPACK (200 μM) or hirudin (1 U/ml), the Zn-chelator 1,10-phenanthroline (1,10-PA; 100 μM), the broad spectrum metalloprotease inhibitor MMP-200 (200 nM), the MMP-1 inhibitor FN-439 (3 μM), the PAR1 ligand binding site inhibitor RWJ-56110 (1 μM), the PAR1 blocking antibody (75 μg/ml), the PAR1 pepducin lipopeptides P1pal-12 (3 μM) or P1pal-7 (3 μM), the PAR4 pepducin lipopeptide P4pal-10 (3 μM), MMP-8 inhibitor (25 nM) or MMP9/13 inhibitor (10 nM).
In FIG. 5B, platelets were treated as in FIG. 5A and then lysed with Laemmli sample buffer 5 min after addition of collagen, p38 MAPK activity was then assessed by western blot with a p38 MAPK phospho-Ab and total p38 loading was determined using a p38 MAPK antibody.

Molecule: hirudin
inhibition (loss) of collagen-induced platelet aggregation (platelets [1]): no effect
effect on size of platelet micro-thrombi on collagen surfaces (platelets [2]): no effect
block of thrombin-induced release of N-terminal cleavage peptide of PAR1 (PAR1 [3]; 3 nM thrombin, 0.00013 U hirudin): blocked

agonist activity, PAR1-dependent Rho signaling in platelets (PAR1 [4]): full agonist
agonist activity, platelet shape change (PAR1 [5]): activated changes in platelet shape
agonist activity, p38 MAPK signaling in platelets (PAR1 [6]): full agonist
Molecule: PR-TRAP: synthetic peptide PRSFLLRN (SEQ ID NO:1), MMP1-generated tethered ligand of PAR1 (listed as Homo sapiens)

agonist activity, platelet shape change (PAR1 [5]): partial agonist activity
Molecule: R-TRAP: peptide corresponding to cleavage at LDP40↓R41SFLLRN (RSFLLRN)

Molecule: Bivalirudin: thrombin inhibitor (Angiomax)
mean arterial occlusion time [7]: 20 min

Molecule: P1pal-12: PAR1 i3 loop pepducin lipopeptide, RCLSSSAVANRS (SEQ ID NO. 3), palmitate (also: palmitate, site not given here)
attenuation of growth rate and size of platelet aggregate strings (platelets [8]): ~75%
inhibition (loss) of collagen-induced platelet aggregation (platelets [1]): identical levels of inhibition as blocking MMP-1

agonist activity, platelet shape change (PAR1 [5]): nearly no activity
Molecule: DPR-TRAP: peptide corresponding to cleavage at L38↓D39PRSFLLRN (DPRSFLLRN; PAR1 N-terminal extracellular mutant)

Molecule: P4pal-10: PAR4 pepducin lipopeptide (SGRRYGHALR; also: lipopeptide ('pal'), lipid and site not given here)
inhibition (loss) of collagen-induced platelet aggregation (platelets [1]): ~10%

agonist activity, PAR1-dependent Rho signaling in platelets (PAR1 [4]): did not stimulate
agonist activity, platelet shape change (PAR1 [5]): did not stimulate
agonist activity, p38 MAPK signaling in platelets (PAR1 [6]): did not stimulate
Molecule: RP-TRAP: control peptide in which the first two amino acid residues were reversed (RPSFLLRN; PAR1 N-terminal extracellular mutant)

Molecule: NC(N)=NCCC[C@H](NC(=O)[C@@H]1CCCN1C(=O)[C@H](N)Cc1ccccc1)C(=O)CCl [PPACK]
inhibition (loss) of collagen-induced platelet aggregation (platelets [1]): no effect

Molecule: CSCCNc1nc(SCCC(F)(F)F)nc2c1ncn2[C@@H]1O[C@H](COP(=O)(O)OP(=O)(O)C(Cl)(Cl)P(=O)(O)O)[C@@H](O)[C@H]1O [AR-C69931MX]
effect on activation of Rho-GTP (Rho-GTP): no effect
suppression of aggregation to collagen (platelets [1]; ARC 0.5 μM, aspirin 1 mM): could still suppress
effect on activation of phospho-p38 MAPK (p38 MAPK): no effect
block of collagen-induced release of PAR1 N-terminal peptide (PAR1 [3]; 5 μg/ml collagen, 10 min, 37° C., Ab 20 μg/ml, ARC 0.5 μM, ASA 1 mM): no effect

Molecule: c1cnc2c(c1)ccc1cccnc12 [1,10-phenanthroline]
inhibition (loss) of collagen-induced platelet aggregation (platelets [1]): 80%
